Measured values: patent US20070098770A1, “Cosmetic path using method thereof, and cosmetic path package” (priority 2003, published 2007)

Assays:
[1] = cited from earlier work
[2] = Stability of vitamin C dissolved in water; type: physicochemical; conditions: eight hours after it is dissolved in water

portion oxidized into dehydroascorbic acid and deactivated by hydrolysis [2]	Compound	solubility in an alcohol ([1]; alcohol (95% in ethanol))	solubility in water ([1]; water)	volume of an absolute alcohol in which 1 g dissolves ([1]; absolute alcohol) [mL]	volume of an alcohol in which 1 g dissolves ([1]; alcohol) [mL]	volume of glycerol in which 1 g dissolves ([1]; glycerol) [mL]	volume of propylene glycol in which 1 g dissolves ([1]; propylene glycol) [mL]	volume of water in which 1 g dissolves ([1]; water) [mL]
	tocopherol [vitamin E]	readily soluble	almost insoluble					
at least 10%	O=C1O[C@H]([C@@H](O)CO)C(O)=C1O [Vitamin C, L-ascorbic acid]			50	30	100	20	3
